Data reported in US20030187056A1, “Live cell procedures to identify to identify compounds modulating intracellular distribution of phosphodiesterase( pde) enzymes” (priority 2000, published 2003).
“And” between values parts separate entries of the source, which are not always exact repeats. Equal entries are not always repeated. “Also recorded” adds a separate entry of the source. Where two headings read alike, the source gives them in different places.

Columns and labels:
PDE4A probes = test: Redistribution of the PDE4A probes (summary); format: cell-based; details: for redistribution of the PDE4A probes: compound alone
HSPDE4A4-EGFP [1] = biological target: T1, HSPDE4A4-EGFP (Homo sapiens, UniProt P27815); test: Spot formation in CHO cells transfected with HSPDE4A4-EGFP; format: cell-based; details: for formation of spots, compound alone (in words): observed up to 24 hours; for Formation of PDE4A4 spots: yes/no; for cells with spots: 10 μM denbufylline, 24.5 hours
T1 construct: expressed in transfected cells
Description: Chinese hamster ovary cells (CHO), are transfected with the plasmids described in Example 1 above using the transfection agent FuGENE™ 6 (Boehringer Mannheim Corp, USA) according to the method recommended by the suppliers. Stable transfectants are selected using 1 mg/ml G418 sulphate (Calbiochem) in the growth medium (HAM's F12 nutrient mix with Glutamax-1, 10% foetal bovine serum (FBS), 100 μg penicillin-streptomycin mixture ml^−1 (GibcoBRL, supplied by Life Technologies, Denmark). Cell are cultured at 37° C. in 100% humidity and conditions of normal atmospheric gases supplemented with 5% CO2.
For fluorescence microscopy, cells are allowed to adhere to Lab-Tek chambered coverglasses (Nalge Nunc International, Naperville USA) for at least 24 hours and are then cultured to about 80% confluence. Cells can also be grown in plastic 96-well plates (Polyfiltronics Packard 96-View Plate or Costar Black Plate, clear bottom; both types tissue culture treated) for imaging purposes. Prior to experiments, the cells are cultured over night without G418 sulphate in HAM F-12 medium with glutamax, 100 μg penicillin-streptomycin mixture ml^−1 and 10% FBS. This medium has low autofluorescence enabling fluorescence microscopy of cells straight from the incubator. For certain tests requiring medium of defined composition, particularly with regard to the presence of specific cell growth factors, the HAM's culture medium is replaced prior to imaging with a buffered saline solution (KRW buffer) containing (in mM) 3.6 KCl, 140 NaCl, 2 NaHCO3, 0.5 NaH2PO4, 0.5 MgSO4, 1.5 CaCl2, 10 Hepes, 5 glucose, pH7.4.
Changes in cellular distribution of a transfected probe can be imaged and quantified in an automated fashion. For this purpose cells are cultured to near 80% to 90% confluence in coverglass chambers or plastic 96-well plates, given the relevant treatment and allowed to respond. At the end of the response period, cells are fixed in 4% formaldehyde buffer (Lillies fixative buffer, pH7.0: Bie and Berntsen A/S, Denmark) for 30 minutes to 2 hours, then washed in phosphate buffered saline (PBS, Life Technologies, Denmark). Nuclear DNA is stained with 1 μM Hoechst 33258 (Molecular Probes, Eugene, Oreg., USA) in PBS for 10 minutes at 25° C., then washed twice in PBS. Automated images are collected on a Nikon Diaphot 300 (Nikon, Japan) using a Nikon Plan Fluor 20X/0.5NA objective lens. The basic microscope is fitted with a motorised specimen stage and motorised focus control (Prior Scientific, Fulbourn, Cambridge UK), excitation filter wheel (Sutter Instruments, Novato Calif. USA) and Photometrics PXL series camera with a KAF1400 CCD chip (Photometrics, Tucson, Ariz. USA), each of these items being under the control of an Macintosh 7200/90 computer (Apple Computer, Cupertino, Calif. USA). Automation of stage positioning, focus, excitation filter selection, and image acquisition is performed using macros written in-house, running under IPLab Spectrum for Macintosh (Scanalytics, Fairfax, Va. USA). Fluorescence illumination comes from a 100 W HBO lamp. Images are collected in pairs, the first using a 340/10 nm excitation filter, the second with a 475RDF40 excitation filter (Chroma, Brattleboro, Vt.). Both images are collected via the same dichroic and emission filters, which are optimised for EGFP applications (XF100 filter set, Omega Optical, Brattleboro, Vt.). While the choice of filters for imaging the nuclear stain (Hoechst 33258) is not well matched to that dye's spectral properties, resulting in lower image intensity, it greatly improves the throughput of the procedure by allowing both images to be collected using the same dichroic and emission filter. This eliminates any image registration problems and focus shifts which would result from using two different filter sets, which would require more steps in the acquisition procedure and more extensive image processing to overcome.

HSPDE4A1-EGFP [2] = biological target: T2, HSPDE4A1-EGFP (Homo sapiens, UniProt P27815); test: Competitive assay: reversal of Rolipram-induced spot dispersal, HSPDE4A1-EGFP CHO cells; format: cell-based; details: yes/no
T2 construct: the ca. 1.95 kb coding region of HSPDE4A1 (GenBank Acc.no. U97584) is amplified; expressed in transfected cells

[3] = human, in vivo; cited from earlier work
[4] = biological target: T3, high affinity Rolipram binding site (HARBS); details: read-out: Displacement of [3H] Rolipram (i: μM); Data from Souness and Rao, 1997; cited from earlier work
T3 construct: Displacement of [3H]; Rolipram (i: μM); other: Data from Souness and Rao, 1997

HSPDE4A4-EGFP [5] = biological target: T1, HSPDE4A4-EGFP; test: Dispersal of preformed Rolipram-induced spots, HSPDE4A4-EGFP CHO cells; format: cell-based; details: for Removal of Rolipram-induced PDE4A4-spots: yes/no
Description: For the microscopic assessment of spot dispersal, stably transfected (non-clonal) cells transfected with the HSPDE4A4-EGFP probe are allowed to adhere to chambered coverglasses in HAM's F12 medium containing 10% FBS. […] Chambered coverglasses are then transferred to a Zeiss 135 inverted microscope for time lapse imaging as described in Example 2, above. At a given point after starting an experiment, a mixture of IBMX and forskolin is added to give final concentrations of 1 mM and 50 μM, respectively. Images are captured at regular intervals to form a time lapse sequence of the response, also as described in Example 2.
The plate is then run in the FLIPR system at 37° C., with addition of IBMX and forskolin to all wells at final concentrations of 500 μM and 50 μM respectively after the first minute. The experiment is continued for a further 45 minutes, readings being taken at intervals of 1 minute.
Non-clonal CHO cells stably transfected with the HSPDE4A4-EGFP probe are allowed to adhere to chambered coverglasses in HAM's F12 medium containing 10% FBS and to grow for 24 hours.
Clonal CHO cells stably transfected with the HSPDE4A4-EGFP probe are allowed to adhere to chambered coverglasses in HAM's F12 medium containing 10% FBS and to grow for 5 days without change of medium, which by this time is serum-depleted.
Individual wells are then treated with either 50 μM forskolin plus 500 μM IBMX or 200 nM PMA plus 2 μM ionomycin.

PDE4 [6] = details: cited from earlier work; for Inhibition of PDE4 catalytic activity: yes/no
PDE4 [7] = test system: T4, PDE4; details: Saldou et al., 1998; read-out: IC50 against PDE4; cited from earlier work
T4 construct: other: Saldou et al., 1998; Such an enzyme preparation may be obtained from cells transfected with and expressing the PDE4 enzyme chosen

HSPDE4A1-EGFP [8] = biological target: T2, HSPDE4A1-EGFP; test: Spot dispersal in CHO cells transfected with HSPDE4A1-EGFP; format: cell-based; details: for dispersal of PDE4A1 spots (in words): Rolipram 2 micromolar 2 hours, others over the ranges tested; for Removal of PDE4A1 spots: yes/no
Description: (§1) […] The cells are then fixed with 4% formalin buffer (pH7) for 1 hour, washed with PBS and stained with 1 μM Hoechst 33258 in PBS for 10 minutes at 25° C., then washed twice in PBS. Automated images are collected and analysed for the number of spots per cell as described in Example 2.
as §1

HSPDE4A4-EGFP [9] = biological target: T1, HSPDE4A4-EGFP; test: Competitive spot assay: inhibition of Rolipram- or RS25344-induced spot formation, HSPDE4A4-EGFP CHO cells; format: cell-based
Description: (§2) The cells are then fixed with 4% formaldehyde buffer (pH7) for 1 hour, washed with PBS and stained with 1 μM Hoechst 33258 in PBS for 10 minutes at 25° C., then washed twice in PBS. Automated images are collected and analysed for the number of spots per cell as described in Example 2.
as §2

PDE3 [10] = test: PDE3 inhibition (literature values, PDE3/PDE4 specificity); format: biochemical; details: measure of specificity
Text: These compounds are termed specific to PDE4, since they inhibit other PDEs either weakly or not at all. The inverse ratio between IC50 of a compound to PDE4s versus its inhibition of other cAMP-degrading PDEs, such as PDE3s is often used as a measure of specificity.

[11] = test system: high affinity Rolipram binding site (HARBS); details: Data from Souness and Rao, 1997; cited from earlier work
PDE3 [12] = details: cited from earlier work
HSPDE4A4-EGFP [13] = test: Formation of small spots in serum-depleted Rolipram-treated HSPDE4A4-EGFP CHO cells; format: cell-based, Homo sapiens; details: 1 or 2 μM ionomycin, KRW buffer with 2 μM Rolipram
Description: Clonal CHO cells stably transfected with the HSPDE4A4-EGFP probe are allowed to adhere to chambered coverglasses in HAM's F12 medium containing 10% FBS and to grow for 4 days without change of medium. […] At the end of this time approximately 95% of the cells contain bright spots when viewed on a fluorescence microscope.
Individual wells are then treated first with 1 or 2 μM ionomycin, and then a short time later with 50 μM forskolin plus 500 μM IBMX. Within 1 minute of treatment with ionomycin, at either 1 or 2 μM, small spots form in the cytoplasm of the cells (FIGS. 32a and 32b). This occurs in nearly all cells, whether they contain large Rolipram-induced spots or not. Large spots are not affected in any way during the formation of the smaller spots. The small spots will spontaneously disappear within 10 to 20 minutes. Application of forskolin plus IBMX clears them within minutes (FIG. 33a). The larger spots also disperse in time with this treatment, but more slowly (FIG. 33b). The formation of small spots will not occur in serum-replete cells, or in starved cells that then have been given 10% serum for more than 45 minutes. […] The time course of transient appearance of the small spots of the HSPDE4A4-EGFP probe is consistent with that of the Ca^2+ transient generally elicited by ionomycin in treated cells.

[14] = test system: cAMP-dependent protein kinases (PKA); details: cited from earlier work
[15] = Data from Souness and Rao, 1997, read-out: PDE4 inhibition (IC50: μM)
[16] = literature values quoted in Example 5 (Saldou 1998; Ahluwalia 1982; Rubin 1991), read-out: IC50 against PDE4

T2 sequence (P27815 1-647 isoform P27815-4): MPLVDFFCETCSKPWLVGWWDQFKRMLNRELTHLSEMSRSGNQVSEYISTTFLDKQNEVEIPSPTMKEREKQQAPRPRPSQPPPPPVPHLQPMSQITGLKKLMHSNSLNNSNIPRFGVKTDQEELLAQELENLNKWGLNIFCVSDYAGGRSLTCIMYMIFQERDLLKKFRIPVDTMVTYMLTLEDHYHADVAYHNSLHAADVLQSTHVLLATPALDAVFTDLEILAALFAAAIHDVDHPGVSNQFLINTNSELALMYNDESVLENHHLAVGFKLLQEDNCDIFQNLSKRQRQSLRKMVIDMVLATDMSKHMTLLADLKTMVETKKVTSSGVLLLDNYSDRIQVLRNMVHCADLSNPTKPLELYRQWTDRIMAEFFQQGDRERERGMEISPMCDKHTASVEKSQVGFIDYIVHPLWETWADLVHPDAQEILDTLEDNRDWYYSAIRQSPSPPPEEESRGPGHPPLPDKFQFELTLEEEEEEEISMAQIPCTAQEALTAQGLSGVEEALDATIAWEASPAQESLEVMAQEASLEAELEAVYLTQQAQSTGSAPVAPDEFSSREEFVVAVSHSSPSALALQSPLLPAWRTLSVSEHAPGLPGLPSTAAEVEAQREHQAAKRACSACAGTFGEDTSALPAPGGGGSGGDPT
T1 sequence (P27815 whole entry): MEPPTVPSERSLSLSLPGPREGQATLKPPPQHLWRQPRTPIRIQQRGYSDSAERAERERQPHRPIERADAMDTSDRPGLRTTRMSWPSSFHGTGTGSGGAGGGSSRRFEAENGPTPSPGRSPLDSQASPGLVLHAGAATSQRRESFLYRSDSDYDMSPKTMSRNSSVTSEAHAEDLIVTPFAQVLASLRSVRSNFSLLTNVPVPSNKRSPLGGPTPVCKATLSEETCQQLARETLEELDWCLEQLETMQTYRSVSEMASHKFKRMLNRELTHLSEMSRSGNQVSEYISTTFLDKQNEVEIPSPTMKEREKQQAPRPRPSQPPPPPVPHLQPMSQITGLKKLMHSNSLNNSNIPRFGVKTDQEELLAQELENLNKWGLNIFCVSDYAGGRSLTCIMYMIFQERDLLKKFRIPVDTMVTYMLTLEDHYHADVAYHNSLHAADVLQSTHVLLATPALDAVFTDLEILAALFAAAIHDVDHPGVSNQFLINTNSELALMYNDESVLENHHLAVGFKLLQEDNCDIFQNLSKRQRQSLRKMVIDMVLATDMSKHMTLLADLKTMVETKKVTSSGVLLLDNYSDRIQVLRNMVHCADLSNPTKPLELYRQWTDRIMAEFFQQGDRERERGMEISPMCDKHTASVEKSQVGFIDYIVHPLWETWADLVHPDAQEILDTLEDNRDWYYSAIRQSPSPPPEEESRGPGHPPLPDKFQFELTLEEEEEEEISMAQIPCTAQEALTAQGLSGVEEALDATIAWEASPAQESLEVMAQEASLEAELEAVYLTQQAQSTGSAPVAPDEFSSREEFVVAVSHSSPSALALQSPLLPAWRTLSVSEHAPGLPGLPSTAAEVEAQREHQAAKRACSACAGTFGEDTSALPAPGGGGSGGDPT

Compound	redistribution of the PDE4A probes (PDE4A probes)	formation of spots, compound alone (in words) (HSPDE4A4-EGFP [1])	Formation of PDE4A4 spots (HSPDE4A4-EGFP [1])	Reversal of Rolipram-induced removal of PDE4A1 spots (HSPDE4A1-EGFP [2])	Clinical effect [3]	Emesis [3]	Ki [4] [µM]	Removal of Rolipram-induced PDE4A4-spots (HSPDE4A4-EGFP [5])	IC50 (PDE4 [6]; [15]) [µM]	Inhibition of PDE4 catalytic activity (PDE4 [6])	dispersal of PDE4A1 spots (in words) (HSPDE4A1-EGFP [8])	Removal of PDE4A1 spots (HSPDE4A1-EGFP [8])	PDE4/HARBS, ratio (IC50 PDE4)/(Ki for HARBS) [11]	IC50 (PDE4 [6]; [16]) [µM]	other results
COc1ccc(C(=O)Nc2c(Cl)cncc2Cl)cc1OC1CCCC1 [RP73401]	induces no redistribution	produces no spots	no	yes	anti-	no	0.0004	yes	0.0012	yes	does not disperse spots; also recorded: no significant spot dispersal	no			prevention of the redistribution caused by Rolipram (PDE4A probes; in presence of Rolipram): prevent the redistribution; time for dispersal of spots (HSPDE4A4-EGFP [5]; spots formed by 2 μM Rolipram over 16 hours, 1 μM RP73401): ≤ 10 min; IC50 (PDE4 [7]): 0.3 nM; cells with spots (HSPDE4A4-EGFP [9]; 2 μM Rolipram plus 0.001 μM RP73401, 7.5 hours): less than 5%; spot formation (in words) (HSPDE4A4-EGFP [9]; 2 μM Rolipram plus 0.003 μM RP73401, 7.5 hours): unable to elicit the production of any spots; also recorded: no spots formed in any of the cells
COc1cc2c(cc1OC)-c1cc(=Nc3c(C)cc(C)cc3C)n(C)c(=O)n1CC2 [Trequinsin, 9,10-dimethoxy-2-mesitylimino-3-methyl-3,4,6,7-tetrahydro-2H-pyrimido[6,1-a]isoquinolin-4-one]	no redistribution	Neither compound causes formation of spots					1.7		0.4		no significant spot dispersal		023	1	(IC50 PDE3)/(IC50 PDE4) (PDE3 [10]): 0.00041
CN(C(=O)CCCOc1ccc2[nH]c(=O)ccc2c1)C1CCCCC1 [cilostamide]	no redistribution	do not produce spots													IC50 (PDE3 [12]): 70 nM; effect on spot formation by 2 μM Rolipram (in words) (HSPDE4A4-EGFP [9]; 500 μM theophylline, 100 μM caffeine, 10 μM milrinone, 0.5 μM cilostamide, 100 μM zaprinast): form the same number and type of bright spots
CCCCn1c(=O)c2c(ncn2CC(C)=O)n(CCCC)c1=O [Denbufylline]	indistinguishable from those induced by Rolipram treatment		yes	no	anti-	yes	0.0041	no	0.2	yes		yes	49	1	cells with spots (HSPDE4A4-EGFP [1]): 40%; cells with spots (HSPDE4A4-EGFP [1]; listed as denbufylline): approximately 40%
C[C@H](CCC(=O)O)C[C@H](C)C[C@H](C)C(=O)/C=C(\O)[C@H](C)C[C@H](C)C/C=C/[C@@H](C)[C@@H](O)[C@@H](C)[C@@H](O)C[C@@H]1CC[C@@](C)([C@H]2CC[C@@](C)([C@@H](C)O)O2)O1 [ionomycin]															time to formation of small spots in the cytoplasm (HSPDE4A4-EGFP [13]): ≤ 1 min; cells with bright spots remaining (HSPDE4A4-EGFP [5]; 2 μM ionomycin 50-55 minutes with 2 μM Rolipram, non-clonal, 10% FBS (control 70%)): 20-40% and 20 to 40%; dispersal of Rolipram-induced spots (in words) (HSPDE4A4-EGFP [5]; FBS-replete cells, 200 nM PMA, 2 μM ionomycin, or 50 μM forskolin plus 1 mM IBMX): slowly and in an incomplete manner
O=S(=O)(NCCNC/C=C/c1ccc(Br)cc1)c1cccc2cnccc12 [H-89]															IC50 [14]: ~50 nM; effect on the dispersal of spots induced by IBMX plus forskolin (HSPDE4A4-EGFP [5]; FLIPR, 2 micromolar H-89 pre-treatment 20 minutes): significant effect on the dispersal of spots
